Laboratory results from publication PMC2813863, “In Vivo Evaluation of α7 Nicotinic Acetylcholine Receptor Agonists [^11C]A-582941 and [^11C]A-844606 in Mice and Conscious Monkeys” (PLoS ONE, 2010).
Several values for one entry are separate records, joined by “and”; a condition that tells them apart may be missing. Equal entries are not always repeated. Where two headings read alike, the source gives them in different places.

Key:
[1] = mice
Protocol: Each tracer (180 MBq/3.0–13.4 nmol) was intravenously injected into mice, and 15 and 30 min later the animals were killed by cervical dislocation (n = 3). Blood was removed by heart puncture using a heparinized syringe, and the brain was removed. The blood was centrifuged at 7,000×g for 1 min at 4°C to obtain plasma, which was denatured with 5 volume of CH3CN. The mixture was centrifuged under the same conditions, and the precipitate was re-suspended in 0.5 ml of CH3CN, followed by centrifugation. This procedure was repeated three times. The cerebral cortex (approximately 200 mg) was homogenized in 1.0 ml of 50% CH3CN. The homogenate was then treated as described above. The combined supernatant was diluted with 2 volumes of water and then analyzed by HPLC with a radioactivity detector (FLO-ONE 150TR; Packard Instrument, Meriden, CT). A Radial-Pak C18 column equipped with an RCM 8×10 module (8 mm ×100 mm; Waters, Milford, MA) was used with a mixture of CH3CN/H2O/triethyl amine (40/60/0.1 for [^11C]A-582941 and 70/30/0.1 for [^11C]A-844606, v/v/v) as the mobile phase at a flow rate of 2 ml/min. The elution profile was monitored with a radioactivity detector. The retention times of [^11C]A-582941 and [^11C]A-844606 were 6.4 and 8.8 min, respectively. The recovery in the eluate of the injected radioactivity was essentially quantitative.

[2] = assay type: in vivo, rhesus monkeys (Macaca mulatta); settings: monkey
Protocol: Blood samples were centrifuged to separate the plasma, weighed, and subjected to radioactivity measurement. For metabolite analysis, methanol was added to some plasma samples, the resulting solutions were centrifuged, and the supernatants were developed with TLC plates (AL SIL G/UV; Whatman, Kent, UK) using a mobile phase of dichloromethane/diethyl ether/ethanol/triethylamine (20/20/2/2, v/v/v/v). At each sampling time point, the ratio of radioactivity in the unmetabolized fraction to that in the total plasma (metabolite plus unmetabolite) was determined using a phosphoimaging plate (BAS-1500 MAC; Fuji Film Co., Tokyo, Japan). The pTACs corrected for metabolite were obtained. The tTACs in each region of interest (ROI) in the brain were calculated as the %ID/ml or as a standardized uptake value (SUV), (activity/ml tissue)/(injected activity/g body weight). Using the tTACs and the metabolite-corrected pTAC, the V T for each tracer was evaluated by Logan graphical analysis.

In the case of `[11CH3]N1CC2CN(c3ccc(-c4ccccc4)nn3)CC2C1` (centres unmarked) [[^11C]A-582941, 2-[^11C]Methyl-5-[6-phenylpyridazine-3-yl]octahydropyrrolo[3,4-c]pyrrole], the “percentage of the unchanged form in the brain” value ([1]; 15 min after injection) is reported as 95.4±1.9%, the “percentage of the unchanged form in the plasma” value ([1]; 15 min after injection) is reported as 40.5±7.1% and the “percentage of the unchanged form in the brain” value ([1]; 30 min after injection) is reported as 97.4±0.8%. For the same compound, the “percentage of the unchanged form in the plasma” value ([1]; 30 min after injection) was 26.8±6.6% and 26.8%, the “percentage of the unchanged form in plasma” value ([2]; SSR180711-blocking condition (n = 1), 0.3 min) was 93.2% and the “percentage of the unchanged form in plasma” value ([2]; SSR180711-blocking condition (n = 1), 0.7 min) was 93.9%. For the same compound, the “percentage of the unchanged form in plasma” value ([2]; SSR180711-blocking condition (n = 1), 1.1 min) was 93.0%, the “percentage of the unchanged form in plasma” value ([2]; SSR180711-blocking condition (n = 1), 6.0 min) was 74.2% and the “percentage of the unchanged form in plasma” value ([2]; SSR180711-blocking condition (n = 1), 10 min) was 56.7%. The “percentage of the unchanged form in plasma” value ([2]; SSR180711-blocking condition (n = 1), 30 min) was 28.3%, the “percentage of the unchanged form in plasma” value ([2]; SSR180711-blocking condition (n = 1), 45 min) was 23.2% and the “percentage of the unchanged form in plasma” value ([2]; SSR180711-blocking condition (n = 1), 60 min) was 20.4%. For the same compound, the “percentage of the unchanged form in plasma” value ([2]; SSR180711-blocking condition (n = 1), 75 min) was 22.2%, the “percentage of the unchanged form in plasma” value ([2]; SSR180711-blocking condition (n = 1), 90 min) was 15.9% and the “percentage of the unchanged form in plasma” value ([2]; baseline, 10 min) was 71.6±4.1%. For the same compound, the “percentage of the unchanged form in plasma” value ([2]; baseline, 30 min) was 42.8±7.8% and 42.8%, the “percentage of the unchanged form in plasma” value ([2]; baseline, 45 min) was 34.0±7.4% and the “percentage of the unchanged form in plasma” value ([2]; baseline, 60 min) was 26.9±5.3%. The “percentage of the unchanged form in plasma” value ([2]; baseline, 75 min) was 23.0±3.4% and the “percentage of the unchanged form in plasma” value ([2]; baseline, 90 min) was 19.2±2.6%.
